ChEMBL document CHEMBL5131561, “Modified Benzofuran-carboxamide Compounds as Glucosylceramide Synthase Inhibitors for Treating Diseases” (ACS Med Chem Lett, 2022)
pEC50: −log10 of the molar value.

Biological target: T1, Ceramide glucosyltransferase (Homo sapiens, UniProt Q16739)
T1 sequence (Q16739 whole entry): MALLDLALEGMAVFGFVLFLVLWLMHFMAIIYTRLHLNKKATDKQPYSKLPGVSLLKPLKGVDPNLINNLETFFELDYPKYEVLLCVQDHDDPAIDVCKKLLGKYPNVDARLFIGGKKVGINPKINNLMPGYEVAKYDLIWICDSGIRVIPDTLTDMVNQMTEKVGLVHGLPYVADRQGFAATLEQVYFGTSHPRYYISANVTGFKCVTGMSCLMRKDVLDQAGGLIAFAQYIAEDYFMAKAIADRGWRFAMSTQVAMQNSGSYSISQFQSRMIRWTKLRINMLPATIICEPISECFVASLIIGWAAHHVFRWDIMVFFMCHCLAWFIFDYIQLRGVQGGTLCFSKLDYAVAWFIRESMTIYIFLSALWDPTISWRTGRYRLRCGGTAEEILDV
Assay: Inhibition of GCS in human A-375 cells using C6-ceramide and UDP-glucose as substrate preincubated for 30 mins followed by substrate addition measured after 20 hrs by UDP-Glo glucosylceramide synthase based luminometer analysis
Assay type: cell-based

Structure (SMILES): N#Cc1ccc(Cl)c(-c2cccc3cc(C(=O)N[C@H]4CC[C@@H](O)C4)oc23)c1
- pEC50: 10.33
